From patent US8404866B2, “Substituted heterocyclic mercaptosulfonamide metalloprotease inhibitors” (Florida State University Research Foundation, priority 2008, dated 2013)
Where a name gives a salt, the structure may show the parent alone.

Experiments:
Format in all cases: cell-based
[1] = test system: human mesenchymal stem cells (hMSC); assay: MMPI cytotoxicity / growth of hMSC (trypan blue count); conditions: 1 nM to 100 μM, 24 hours
Method: Passage 3 human adult bone marrow-derived mesenchymal stem cells (hMSCs, Tulane Center for Gene Therapy) were plated for a recovery phase of 24 hours at 37° C. and 5% CO2 in Alpha Minimum Essential Medium (αMEM, Sigma Aldrich) containing L-glutamine but without ribonucleosides or deoxyribonucleosides, 16.5% FBS, ˜2-4 mM L-glutamine, and penicillin and streptomycin as antibiotics. After the recovery phase, hMSCs were seeded into 6-well plates at a density of ˜60 cells/cm^2 within each well containing 2 mL of cell culture medium. Fresh cell culture medium was added every 3 days until the cells reached a confluency of approximately ˜70% at which media was changed to the conditioned forms necessary for observing MMPI cytotoxicity.
(§1) Upon reaching the desired confluency, each cell type was treated with the respective fresh media that was conditioned with a logarithmic panel of MMPI concentrations ranging from 1 nM to 100 μM. Specifically, each of the inhibitors were dissolved in an appropriate amount of 100% EtOH to generate 8 mM stock solutions from which an aliquot was used to produce serial dilutions with either SmBm or αMEM. The conditioned media was added to either hCASMCs or hMSCs and incubated for 24 hours. […] In order to quantify the levels of toxicity these inhibitors had on hCASMC and hMSC growth and viability, the cells were treated with trypan blue and counted via a hemocytometer. […]

[2] = test system: human brain microvascular endothelial cells (hBMECs); assay: Endothelial cell migration and wound-healing assay; conditions: at 3 μM and above, 24 hours
Method: Culture of human brain microvascular endothelial cells: Human brain microvascular endothelial cells (hBMECs) were cultured with EGM-2MV Microvascular Endothelial Cell Medium-2 1 kit Bullet Kit, 5% fetal bovine serum, with or without treatments with synthetic matrix metalloproteinase inhibitors (MMPIs), at 37° C. and 5% CO2.
Endothelial cell migration and wound-healing assays: All experiments for this phase were performed in triplicate, and each consisted of […] wounded cultures utilizing serial concentrations of MMPIs: (1) an untreated control; (2) 100 μM MMPI; (3) 30 μM MMPI; (4) 10 μM MMPI; (5) 3 μM MMPI; (6) 1 μM MMPI; (7) 100 nM MMPI; (8) 10 nM MMPI; and (9) 1 nM MMPI. A 1 mL pipette tip was utilized to create a linear wound in a confluent monolayer of hBMECs. A fine, sterile needle was used to demarcate a cell-free “wounded field”. All cultures were photographed at that time. After 24 hours, the wounded cell culture was washed three times with phosphate buffered saline, fixed with 4% paraformaldehyde for 10-20 min, and stained with 0.1% crystal violet for 10-20 min. The stained culture was washed with ddH2O three times and left overnight to air dry. […] The density of the cell coverage in the wounded field was quantified utilizing the integrated morphometry analysis (IMA) (Metamorph System v.4.6r8, University Imaging Corp.). […]

[3] = test system: human coronary artery smooth muscle cells (hCASMC); assay: MMPI cytotoxicity / growth of hCASMC (trypan blue count); conditions: 24 hours
Method: Passage 7 human coronary artery smooth muscle cells (hCASMCs) were plated in a 10 cm dish containing 20 mL of smooth muscle basal medium (SmBm, Lonza, Cat. No. CC-3182) supplemented with 0.1% insulin, 0.1% epidermal growth factor (rhEGF), 0.2% fibroblast growth factor-B (rhFGF-B), 0.1% gentamicin/amphotericin (antibiotics), and 5% FBS. The cells were incubated for 24 hours at 37° C. and 5% CO2, with 20 mL of fresh SmBm added the following day. Fresh SmBm was added every 2 days until the culture was ˜70-80% confluent and contained a minimum of 5 mitotic figures when viewed at 100× magnification. At this time, cells were then trypsinized and seeded into 24-well plates at an initial density of 3,500 cells/cm^2 and grown to ˜60% confluence prior to MMPI treatment.
as §1, with “αMEM.” for “αMEM. The conditioned media was added to either hCASMCs or hMSCs and incubated for 24 hours.”

NC(=O)N1C[C@H](NS(=O)(=O)c2ccc(Oc3ccccc3)cc2)[C@@H](S)C1 (racemic) [Example 1, (±)-N-Carbamoyl-trans-3-(4-phenoxybenzenesulfonamido)-4-mercaptopyrrolidine]
hMSC growth curve [1]: erratic results
inhibition on hBMEC wound healing [2]: pretty good inhibition

O=S(=O)(N[C@H]1CNC[C@@H]1S)c1ccc(Oc2ccccc2)cc1 (racemic) [Example 3, (±)-trans-3-(4-Phenoxybenzenesulfonamido)-4-mercaptopyrrolidine Hydrochloride]
hCASMC growth ([3]; lower concentrations, compared to identical concentrations of YHJ-6-286 and YHJ-7-23): increased hCASMC growth nearly two-fold

CN([C@H]1CN(C(N)=O)C[C@@H]1S)S(=O)(=O)c1ccc(Oc2ccccc2)cc1 (racemic) [Example 4, (±)-N-Carbamoyl-trans-3-(N-methyl-4-phenoxybenzenesulfonamido)-4-mercaptopyrrolidine]
hCASMC growth curve ([3]; 1 nM to 100 μM): local minimum originating at 300 nM and minimizing at ˜30 nM
hMSC growth curve [1]: steadily increased as the concentration of YHJ-7-23 was decreased
